Reference: US20070010446A1, “METHODS FOR TREATING INFLAMMATION USING THYROID STIMULATING HORMONE” (ZymoGenetics, Inc., priority 2003, published 2007)

What was measured:
C57BL/6 mice [1] = assay: Delayed Type Hypersensitivity (DTH), OVA ear challenge; format: in vivo; conditions: Expt 3 (n = 7), adrenalectomized (ADX) mice; treatment i.p. at challenge (d 7); Dex […], TSH 2.0 mg/kg
C57BL/6 mice [2] = assay: LPS-induced mild endotoxemia mouse model, serum cytokines by ELISA; format: in vivo; conditions: treatment i.p. 1 hour prior, Dex […], TSH 2.0 mg/kg, Thyroxine 0.05 mg/kg; for TNFα (1 hr) +/− S.E.: serum 1 hour after 25 ug LPS i.p., PBS group 6990.8; for IL-6 (4 hr) +/− S.E.: serum 4 hours after 25 ug LPS i.p., PBS group 45.6
Description: The LPS-induced mild endotoxemia model is an in vivo model designed to mimic acute endotoxemia/sepsis by challenging mice with a low, non-lethal dose of bacterial endotoxin (lipopolysaccharide, LPS). Serum is collected at various timepoints (1-72 hours) after intraperitoneal LPS injection and analyzed for altered expression of a wide variety of pro- and anti-inflammatory cytokines and acute phase proteins that mediate the inflammatory response. The model provides a means to assess the potential anti-inflammatory effects of therapeutic candidates during a robust inflammatory response.
In this model, an initial experiment is run to determine the production of proinflammatory cytokines in response to an injection of LPS. For example, six-month old Balb/c (Charles River Laboratories, Wilmington, Mass.) female mice are injected with 25 μg LPS (Sigma) in sterile PBS intraperitoneally (i.p.). Serum samples are collected at 0, 1, 4, 8, 16, 24, 48 and 72 hours later, and are assayed for serum levels of inflammatory mediators, such as IL-1β, IL-6, TNFα, and IL-10. Commercially available ELISA kits (Biosource International, Camarillo, Calif.) can be used to deterime the serum levels. In this assay TNFα levels and IL-1β levels can be measured at 1 hour post-LPS injection, and IL-6, IL-10 and IL-10 can be measured at 4 hours post injection. From these inflammatory mediators, one or more is chosen as a representative biological marker(s) for the LPS model of mild endotoxemia.
Next, C57BL/6 mice (Charles River Laboratories; 5 mice/group) are treated i.p. with PBS, or the test compound in PBS 1 hour prior to LPS challenge. The mice are then challenged with 25 ug of LPS i.p. and are bled at 1 hour and 4 hours after LPS injection. The level of the representative biological marker(s) is analyzed by ELISA.
Thyroxine (0.05 mg/kg) and Dexamethasone (0.015 mg/kg) were run as negative and positive controls, respectively. […] This model can be optimized for dosage and choice of biological markers.

thymus = conditions: mouse, in vivo

thymic atrophy (in words) (thymus)	SMILES	CHANGE IN EAR THICKNESS, LEFT EAR (PBS) (C57BL/6 mice [1])	CHANGE IN EAR THICKNESS, RIGHT EAR (OVA) (C57BL/6 mice [1])	TNFα (1 hr) +/− S.E. (C57BL/6 mice [2]) [pg/mL]	IL-6 (4 hr) +/− S.E. (C57BL/6 mice [2]) [ng/mL]
obvious thymic atrophy	C[C@@H]1C[C@H]2[C@@H]3CCC4=CC(=O)C=C[C@]4(C)[C@@]3(F)[C@@H](O)C[C@]2(C)[C@@]1(O)C(=O)CO [Dex, Dexamethasone]	0.07 +/− 0.61 ×10^−3 inch	3.71 +/− 0.64 ×10^−3 inch	3798.4 ± 415.7	35.2 ± 2.8
	N[C@@H](Cc1cc(I)c(Oc2cc(I)c(O)c(I)c2)c(I)c1)C(=O)O [Thyroxine]			4289.5 ± 642.3	37.1 ± 0.9
